# Measured values from patent publication US20100166727A1, “S-Adenosylmethionine And Methylthioadensosine In Chemoprevention And Treatment Of Colon Polyps And Cancer” (UNIVERSITY OF SOUTHERN CALIFORNIA, priority 2007, published 2010).
# pIC50: −log10 of the molar value.
# What was measured:
# [1] = test system: RKO cells; assay: Apoptosis in RKO cells (HOECHST staining, Annexin V); format: cell-based, human; details: by 24 hrs, RKO cells
# Procedure: Apoptosis was assessed by HOECHST staining (34). Briefly, RKO cells were grown on coverslips and treated with RNAi#1 for 24 hrs and cells were fixed with paraformaldehyde and stained with 8 μg/ml HOECHST 33258 dye for 30 min. Cells with bright, fragmented, condensed nuclei were identified as apoptotic cells using the Nikon Eclipse TE300 fluorescent microscope. At least 5 random fields (at ×300) were counted.
# (§1) In these experiments the total treatment duration was limited to 16 hrs to avoid the apoptotic effect. […] Apoptosis was measured by Hoechst staining or Annexin V and propidium iodide staining on flow cytometry.
# [2] = test system: human GSS promoter; assay: Human GSS promoter activity in HT-29 cells; format: cell-based; details: SAMe or MTA treatment as for MAT2A promoter
# From the text: The human MAT2A promoter construct[…] and GSS promoter construct −1686/−46-LUC were previously described (33, 34, 50), and subcloned in the sense orientation upstream of the luciferase coding sequence of the pGL-3 enhancer vector (Promega). Both promoter constructs contain maximal promoter activity. Specificity of SAMe and MTA on promoter activity was examined by transfecting HT-29 cells with the GSS promoter construct and treating cells with SAMe or MTA as above.
# [3] = test system: c-FLIP; assay: c-FLIP expression and caspase 8 activation in RKO cells; format: cell-based, human; details: 6 hrs, with concomitant caspase 8 activation
# Procedure: FIG. 27. […] RKO cells were treated with SAMe (0.25-5 mM) or MTA (0.25-2 mM) for 6 hrs and c-FLIP isoform mRNA levels were measured using real-time PCR (A) and protein levels of c-FLIP and caspase 8 by Western blots (B).
# [4] = Stability of SAMe and MTA in culture medium without cells and in water; format: physicochemical; details: culture medium at 37° C., linear regression
# Procedure: FIG. 12. […] SAMe (A) and MTA (B) levels were measured in culture medium without cells with starting SAMe concentrations ranging from 1 to 5 mM and MTA concentration at 1 mM.
# To test whether the mitogens-induce increase in. MAT2A is to provide increased SAMe necessary for polyamine synthesis in growing cells, SAMe and polyamine levels were measured following treatment of HT-29 cells with mitogens.
# [5] = test system: NCM460 cells; assay: Toxicity and apoptosis in NCM460 normal colonic epithelial cells; format: cell-based, human
# Procedure: as §1
# [6] = test system: MAT2A; assay: MAT2A expression in NCM460 cells; format: cell-based, human; details: 5 mM SAMe or 1 mM MTA, 6 hrs
# Procedure: Total RNA was isolated by the EZgeno total RNA isolation kit (Genemega, San Giego, Calif.), and subjected to reverse transcription (RT) by using M-MLV Reverse transcriptase (Invitrogen). 2 μl of RT product was subjected to quantitative real-time PCR analysis. The primers and TaqMan probes for MAT2A, MAT2β and Universal PCR Master Mix were purchased from ABI (Foster City, Calif.). Hypoxanthine phosphoribosyl-transferase 1 (HPRT1) and ubiquitin C (UBC) were used as housekeeping genes (48). The thermal profile consisted of 1 cycle at 95° C. for 15 minutes followed by 40 cycles at 95° C. for 15 seconds and at 60° C. for 1 minute. The expression of MAT2A and MAT2β was checked by normalizing the Ct of MAT2A and MAT2β to that of the control housekeeping gene (HPRT1 or UBC) (49). The delta Ct obtained was used to find the relative expression of MAT genes according to the formula: Relative expression=2·^ΔCt, where ΔCt=ΔCt of MAT genes in colon cancer or treated cells—ΔCt of MAT genes in normal colon or control cells.
# NCM460 cell line was originally established in 1996 as the first non-malignant colonic epithelial cell line derived from the transverse colon (43). When first developed, cells formed both monolayer and in suspension, express villin and cytokeratin staining (43). […] The NCM460 cells in monolayer have features of transverse colon crypt cells (69). […]
# [7] = molecular target: MAT I (Rattus norvegicus, UniProt P13444); details: cited from earlier work
# [8] = test system: human MAT2A promoter; assay: Luciferase activity driven by the human MAT2A promoter in HT-29 cells; format: cell-based; details: SAMe 5 mM or MTA 1 mM, 6 hrs
# Procedure: The human MAT2A promoter construct[…] and GSS promoter construct −1686/−46-LUC were previously described (33, 34, 50), and subcloned in the sense orientation upstream of the luciferase coding sequence of the pGL-3 enhancer vector (Promega). Both promoter constructs contain maximal promoter activity.
# To study the effect of mitogens on human MAT2A promoter activity in HT-29 cells, HT-29 cells (5×10^5 cells in 2 ml serum-free medium) were transiently transfected with 2 μg MAT2A promoter firefly luciferase gene construct or promoterless pGL3-enhancer vector (as negative control) using the Superfect Transfection Reagent (Qiagen, Valencia, Calif.) (34). To control for transfection efficiency, cells were co-transfected with the Renilla phRL-TK vector (Promega, Madison, Wis.). […] The luciferase activity driven by the MAT2A promoter construct was normalized to Renilla luciferase activity. Each experiment was done with triplicate samples.
# [9] = test system: cFLIPL; assay: Colonic cFLIPL mRNA in mice fed SAMe or MTA; format: in vivo; details: oral, 6 days
# Procedure: FIG. 30. Effects of oral SAMe and MTA on colonic mRNA levels of MAT2A, MAT2 β, and […]. Mice were fed SAMe (150 to 450 mg/kg/d) or MTA (75 or 150 mg/kg/d) in drinking water for 6 days. Colonic mucosa was scrapped off and gene expression measured by real-time PCR.
# Sequence of MAT I (P13444 whole entry): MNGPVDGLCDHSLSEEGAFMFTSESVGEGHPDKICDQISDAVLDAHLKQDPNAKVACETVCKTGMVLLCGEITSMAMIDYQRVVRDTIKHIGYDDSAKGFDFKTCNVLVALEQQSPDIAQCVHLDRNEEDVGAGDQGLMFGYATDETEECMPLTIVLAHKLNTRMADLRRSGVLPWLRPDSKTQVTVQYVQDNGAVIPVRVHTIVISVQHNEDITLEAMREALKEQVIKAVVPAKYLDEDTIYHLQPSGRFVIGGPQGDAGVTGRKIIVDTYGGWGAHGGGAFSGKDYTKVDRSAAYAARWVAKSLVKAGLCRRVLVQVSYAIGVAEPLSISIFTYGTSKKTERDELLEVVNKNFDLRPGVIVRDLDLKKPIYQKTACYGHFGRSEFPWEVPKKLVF
smiles,measurement,setting,value
"C[S+](CC[C@H](N)C(=O)O)C[C@H]1O[C@@H](n2cnc3c(N)ncnc32)[C@H](O)[C@@H]1O (stereo partly shown) [SAMe, S-adenosylmethionine]",apoptosis,[1],induced apoptosis in a dose-dependent manner
same,human GSS promoter activity,[2],no influence on the human GSS promoter activity
same,c-FLIP expression,[3],lowered c-FLIP expression
same,rate of conversion from SAMe to MTA,[4],0.013 mM per hour per mM SAMe
same,menadione (MQ)-induced toxicity in NCM460 cells,[5],protected against menadione (MQ)-induced toxicity
same,reduction of MAT2A expression,[6],40%
same,Inhibition by SAMe,[7]; MAT I,No
same,pIC50,"[7]; read-out: IC50, inhibition of MAT I",3.40
same,human MAT2A promoter activity,[8],lower the promoter activity
same,cFLIPL expression,[9],inhibited cFLIPL expression
